According to patent US11564923B2, “Compounds and pharmaceutical compositions thereof for the treatment of inflammatory disorders” (Galapagos NV, priority 2017, dated 2023):

Key:
[1] = test system: IL-12 activation of STAT4 in NK-92 cells; test: IL-12 activation of STAT4 in NK-92 cells using AphaLISA SureFire technology; assay type: cell-based; conditions: Homo sapiens, NK92; IL-12 activation of STAT4 in NK-92 cells, AlphaLISA SureFire; average IC50; read-out: IL12 pSTAT4 IC50
Summary of the method: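 NK-92 cells, starved of rhIL-2 overnight, were stimulated with rhIL-12 for 30 min at 37 °C with test compounds, then lysed. Phospho-STAT4 (Tyr693) was read by AlphaLISA SureFire. Percent inhibition versus the vehicle-plus-trigger signal was fitted by sigmoidal nonlinear regression to give IC50, averaged over experiments.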

[2] = test system: IFNα activation of STAT1 in PBMC; test: IFNα activation of STAT1 in PBMC; assay type: cell-based; conditions: Homo sapiens; IFNα activation of STAT1 in PBMC; average IC50; read-out: IFNα signaling inhibitory potency IC50
Summary of the method: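 Human PBMC, with red cells lysed by NH4Cl, were pre-treated with compound for 30 min at 37 °C and 5% CO2. They were then stimulated for 30 min with recombinant human IFNα at 5 ng/mL final.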

[3] = target: T1, Recombinant human TYK2 catalytic domain (amino acids 871-1187) (Homo sapiens, UniProt P29597); test: TYK2 ADPglo kinase assay; assay type: biochemical; note: 12 µM ATP
T1 construct: catalytic domain (amino acids 871-1187)
T1 sequence (P29597 871-1187): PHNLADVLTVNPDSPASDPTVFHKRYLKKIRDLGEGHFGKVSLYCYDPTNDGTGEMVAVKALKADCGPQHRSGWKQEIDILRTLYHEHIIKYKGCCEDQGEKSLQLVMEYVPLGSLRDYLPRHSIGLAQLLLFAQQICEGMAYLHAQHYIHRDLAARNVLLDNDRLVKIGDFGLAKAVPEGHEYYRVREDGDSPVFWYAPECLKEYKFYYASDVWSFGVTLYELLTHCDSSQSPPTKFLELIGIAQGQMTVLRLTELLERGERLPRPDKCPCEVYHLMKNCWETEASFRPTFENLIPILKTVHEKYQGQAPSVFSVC
Procedure: After 120 min at room temperature, reactions were stopped and the remaining ATP is depleted by adding 5 μL/well of ADP Glo Reagent (Promega, catalog number V912B). After 40 min at room temperature, 10 μl Kinase Detection Reagent (Kinase Detection Substrate (Promega, catalog number V914B) dissolved in Kinase Detection Buffer (Promega, catalog number V913B)) is added to convert ADP to ATP and to measure this newly synthesized ATP in a luciferase/luciferin reaction. Readout is performed after 30 min incubation at room temperature using the Envision. Kinase activity is calculated by subtracting the relative light units (RLU) obtained in the presence of a positive control inhibitor (10 μM staurosporine) from the RLU obtained in the presence of vehicle. The ability of a test compound to inhibit this activity (or percentage inhibition) is determined as:
RLU test compound=RLU determined for sample with test compound present
RLU control=RLU determined for sample with positive control inhibitor
RLU vehicle=RLU determined in the presence of vehicle
Dose dilution series were prepared for the compounds enabling the testing of dose-response effects in the TYK2 assay and the calculation of the IC50 for the compound. Each compound is routinely tested at concentration of 20 μM followed by a 1/5 serial dilution, 10 points in a final concentration of 1% DMSO. […] The data are expressed as the average IC50 from the assays.

[4] = test system: IFNα stimulation, Phospho-STAT1 on CD4+ cells in human whole blood; test: Human whole blood assay (hWBA), IFNα stimulation; assay type: cell-based; conditions: Universal type I IFN 1000 U/mL, pSTAT1 on CD4+ cells, read-out: IFN α IC50
Procedure: (§1) A flow cytometry analysis is performed to establish JAK1 and TYK2 compound potency ex vivo using human whole blood. Therefore, blood is taken from human volunteers who gave informed consent, then equilibrated for 30 min at 37° C. under gentle rocking and aliquoted in Eppendorf tubes. Compound is added at different concentrations and incubated at 37° C. for 30 min under gentle rocking and subsequently stimulated for 20 min at 37° C. under gentle rocking with interleukin 6 (IL-6) for JAK-dependent pathway stimulation or IFNα for TYK2-dependent pathway stimulation. Phospho-STAT1 is then evaluated using FACS analysis.
(§2) The remaining diluted Lyse/Fix buffer is discarded.
(§3) A 3-fold dilution series of the compound is prepared in DMSO (10 mM stock solution). Control-treated samples received DMSO instead of compound. All samples are incubated with a 1% final DMSO concentration.
Human blood is collected in heparinized tubes. The blood is divided in aliquots of 148.5 μL. Then, 1.5 μL of the test compound dilution is added to each blood aliquot and the blood samples are incubated for 30 min at 37° C. under gentle rocking. One and a half microliter of 10-fold diluted IL-6 stock solution or Universal type 1 IFN is added to the blood samples (final concentration 10 ng/mL and 1000 U/mL, respectively) and samples are incubated at 37° C. for 20 min under gentle rocking.
At the end of the stimulation period, 3 mL of 1× pre-warmed Lyse/Fix buffer is immediately added to the blood samples, vortexed briefly and incubated for 15 min at 37° C. in a water bath in order to lyse red blood cells and fix leukocytes.
Tubes are centrifuged for 5 min at 400×g at 4° C. The cell pellet is washed with 3 mL of cold 1×PBS, and after centrifugation the cell pellet is resuspended in 100 μL of ice-cold 1×PBS and 900 μL ice-cold 100% MeOH is added. Cells are then incubated at 4° C. for 30 min for permeabilization.
Permeabilized cells are then washed with 1×PBS containing 3% BSA and finally resuspended in 80 μL of 1×PBX containing 3% BSA.
(§4) Cells are then washed once with 1×PBS and analyzed on a FACSCanto II flow cytometer (BD Biosciences).
(§5) 50,000 total events are counted and Phospho-STAT1 positive cells are measured after gating on CD4+ cells, in the lymphocyte gate.

[5] = target: T1, Recombinant human TYK2 catalytic domain (amino acids 871-1187); test: TYK2 radioactive assay polyGT substrate; assay type: biochemical; note: 0.1 µM ATP
Summary of the method: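 Reaction at 30° C. for 120 min, ended with 150 mM phosphoric acid, washed, counted; percent inhibition scaled between vehicle and 10 μM staurosporine cpm.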

[6] = test system: IL-6 stimulation, Phospho-STAT1 on CD4+ cells in human whole blood; test: Human whole blood assay (hWBA), IL-6 stimulation; assay type: cell-based; conditions: IL-6 10 ng/mL, pSTAT1 on CD4+ cells, read-out: IL6 IC50
Procedure: as §1, §2, §3
Human blood is collected in heparinized tubes. The blood is divided in aliquots of 148.5 μL. Then, 1.5 μL of the test compound dilution is added to each blood aliquot and the blood samples are incubated for 30 min at 37° C. under gentle rocking. […]
as §4, §5

IC50 [1]	IC50 [3]	IC50 [4]	IC50 [5]	IC50 [6]	Compound	IC50 [2]
87 nM	2.39 nM	1070 nM	–	–	Cc1cc(C#N)ncc1Oc1cc(Nc2ccc(N3C[C@@H](C)O[C@H](C)C3)nn2)c2ncn(C)c2n1 [Compound 168, 5-[7-[[6-[(2R,6R)-2,6-dimethylmorpholin-4-yl]pyridazin-3-yl]amino]-3-methylimidazo[4,5-b]pyridin-5-yl]oxy-4-methylpyridine-2-carbonitrile]	82 nM
40.5 nM	0.93 nM	757 nM	–	–	Cc1cc(C#N)ncc1Oc1cc(Nc2ccc(N3C[C@@H](C)O[C@H](C)C3)nn2)c2ncn(C)c2n1 (racemic) [Compound 176, 4-methyl-5-[3-methyl-7-[[6-[rac-(2R,6R)-2,6-dimethylmorpholin-4-yl]pyridazin-3-yl]amino]imidazo[4,5-b]pyridin-5-yl]oxypyridine-2-carbonitrile]	66.5 nM
302 nM	–	175 nM	1.98 nM	–	Cc1cc(C#N)ncc1Oc1cc(Nc2ccc(C(=O)N3CC(C(C)(C)O)C3)cn2)c2ncn(C)c2n1 [Compound 102, 5-[7-[[5-[3-(1-hydroxy-1-methyl-ethyl)azetidine-1-carbonyl]-2-pyridyl]amino]-3-methyl-imidazo[4,5-b]pyridin-5-yl]oxy-4-methyl-pyridine-2-carbonitrile]	75 nM
1020 nM	1.1 nM	269 nM	–	6810 nM	Cc1cc(C#N)ncc1Oc1cc(Nc2ccc(C(=O)N3CCN(C)CC3)nn2)c2ncn(C)c2n1 [Compound 150, 4-methyl-5-[3-methyl-7-[[6-(4-methylpiperazine-1-carbonyl)pyridazin-3-yl]amino]imidazo[4,5-b]pyridin-5-yl]oxypyridine-2-carbonitrile]	278 nM
1100 nM	–	447 nM	4.29 nM	–	Cc1cc(C#N)ncc1Oc1cc(Nc2ccc(C(=O)N3CC[C@H](O)C3)cn2)c2ncn(C)c2n1 [Compound 112, 5-[7-[[5-[(3S)-3-hydroxypyrrolidine-1-carbonyl]-2-pyridyl]amino]-3-methyl-imidazo[4,5-b]pyridin-5-yl]oxy-4-methyl-pyridine-2-carbonitrile]	130 nM
150 nM	–	533 nM	1.43 nM	–	Cc1cc(C#N)ncc1Oc1cc(Nc2ccc(C(=O)N3CC(N(C)C)C3)cn2)c2ncn(C)c2n1 [Compound 106, 5-[7-[[5-[3-(dimethylamino)azetidine-1-carbonyl]-2-pyridyl]amino]-3-methyl-imidazo[4,5-b]pyridin-5-yl]oxy-4-methyl-pyridine-2-carbonitrile]	102 nM
97 nM	2.28 nM	1450 nM	–	–	Cc1cc(C#N)ncc1Oc1cc(Nc2ccc(N3C[C@H](C)O[C@@H](C)C3)nn2)c2ncn(C)c2n1 [Compound 166, 5-[7-[[6-[(2S,6S)-2,6-dimethylmorpholin-4-yl]pyridazin-3-yl]amino]-3-methylimidazo[4,5-b]pyridin-5-yl]oxy-4-methylpyridine-2-carbonitrile]	84 nM
